Test results reported in patent US20260007613A1, “LONG-ACTING LOW-TOXICITY NOVEL CATIONIC LIPID COMPOUNDS AND COMPOSITION THEREOF” (BEIJING YOUCAREKECHUANG PHARMACEUTICAL TECHNOLOGY CO., LTD., priority 2023, published 2026).

Legend:
[1] = test system: 293T cells; assay: Fluorescent detection of Fluc-mRNA (cell transfection efficiency of LNP formulations); assay type: cell-based; details: for Multiples (YK-305): RLU of YK-305 / RLU of the lipid of the line; for Multiples (YK-310): RLU of YK-310 / RLU of the lipid of the line; for Multiples (YK-312): RLU of YK-312 / RLU of the lipid of the line; for Multiples (YK-318): RLU of YK-318 / RLU of the lipid of the line; for Multiples (YK-318) / Multiples (YK-319): Tables 5, 7, 11; for Multiples (YK-319): RLU of YK-319 / RLU of the lipid of the line; for Ratio relative to SM-102: RLU of the lipid / RLU of SM-102, times that of SM-102; for Relative light unit (RLU): LNP formulation of Fluc-mRNA, 96-well plate, 24 hours
Experimental: (§1) Cell recovery and passage: 293T cells were recovered, cultured in a culture dish, and passaged to the required number of cells.
(§2) Seeding plate: The cells in the culture dish were digested and counted. Cells were spread in a 96-well plate at 10,000 cells per well and in a 12-well plate at 150,000 cells per well. Cells were cultured overnight until the cells adhered to the wall.
(§3) Cell recovery and passage: the method was the same as in Example 3.
(§4) Seeding plate: the method was the same as in Example 3.
An LNP formulation containing […] of Fluc-mRNA (the carrier components of the LNP formulation were cationic lipid, neutral lipid, structured lipid and polymer-conjugated lipid with a molar ratio of 49:10:39.5:1.5, wherein the cationic lipid was listed in Table 1) was added to the cell culture medium of a 96-well plate, and further incubated for 24 hours. The corresponding reagent was added according to the instructions of the […] Luciferase Assay Kit, and the fluorescence expression intensity of each well was detected by an IVIS fluorescence detection system. This test verified the transfection efficiencies of LNP formulations in cells, see Tables 4-7 for specific test results.

[2] = Particle size and polydispersity index (PDI) of lipid nanoparticles by dynamic light scattering; assay type: physicochemical; details: LNP formulation prepared from the cationic lipid, 25° C.
Experimental: The particle size and polydispersity index (PDI) were determined by dynamic light scattering using Malvern laser particle size analyzer.
10 μL of the liposome solution was weighed, diluted to 1 mL with RNase-free deionized water, and added to the sample pool. Each sample was measured in triplicate. The measurement conditions were: […] scattering angle, and 25° C.

[3] = test system: 293T cells; assay: Cell survival rate determination (CCK-8); assay type: cell-based; details: LNP formulation of Fluc-mRNA, 24 hours, CCK-8
Experimental: as §1, §2, §3, §4
An LNP formulation containing […] of Fluc-mRNA (the carrier components of the LNP formulation were cationic lipid, neutral lipid, structured lipid and polymer-conjugated lipid with a molar ratio of 49:10:39.5:1.5, wherein the cationic lipid was listed in Table 1) and the formulation of Lipofectamine 3000 were added to the cell culture medium of a 96-well plate, and further cultivated for 24 hours. 10 μL of CCK-8 solution was then added to each well, and the culture plate was incubated in an incubator for 1 hour. The absorbance at 450 nm was measured by a microplate reader.
Cell survival rate can represent the toxicity of cationic lipids to cells. The higher the cell survival rate, the lower the toxicity to cells.

[4] = test system: liver; assay: Distribution of liposomes in mice: protein expression in the liver (live imaging); assay type: in vivo; details: at 6 h, intramuscular injection
Experimental: (§5) The LNP formulation containing […] Fluc-mRNA was injected intramuscularly into female BALB/C mice aged 4 to 6 weeks old and weighed 17 to 19 g, and the mice were intraperitoneally injected with fluorescent imaging substrate at specific time points after administration (6 h, 24 h, 48 h and 7 d), where the mice were free to move for 5 minutes, and then the average radiation intensity (corresponding to fluorescence expression intensity) of the protein expression of the mRNA carried by the LNP in the mice was detected by the IVIS Spectrum small animal live imaging device.
At 24 h, the LNP formulations prepared from all compounds had been metabolized in the liver and had no protein expression.

[5] = test system: female BALB/C mice; assay: Live imaging in mice: protein expression of Fluc-mRNA delivered by LNP formulations; assay type: in vivo
Experimental: In addition, the protein expression and duration of mRNA in mice delivered by the cationic lipid delivery carriers designed were also verified.
as §5

[6] = 6 h after intramuscular injection
[7] = 24 h after intramuscular injection
[8] = 48 h after intramuscular injection
[9] = 7 d after intramuscular injection

Structure (SMILES) | PDI (%) [2] [%] | Particle size (nm) [2] [nm] | protein expression in the liver [4] | Multiples (YK-305) [1] | Multiples (YK-310) [1] | Multiples (YK-312) [1] | Multiples (YK-318) [1] | Multiples (YK-319) [1] | Ratio relative to SM-102 [1] | Cell survival rate (%) [3] [%] | average radiation intensity [5, 6] | average radiation intensity [5, 7] | average radiation intensity [5, 8] | average radiation intensity [5, 9] | Relative light unit (RLU) [1] [RLU]
CCCCCCCCC(CCCCCC)C(=O)OCCCCCCN(CCCCO)CCCCCCOC(=O)C(CCCCCC)CCCCCCCC (centres unmarked) [ALC-0315, reference compound] | 21.2 | 231 | had protein expression in the liver | 13.48 | 12.69 | 9.91 | 5.50 | 12.03 | 1.27 | 51.03 | 863760 | 190480 | 39810 | 7047 | –
CCCCCCCCC(CCCCCCCC)OC(=O)CCCCCCCN(CCO)CCCCCCCC(=O)OCCC(CCCCCC)CCCCCC [Compound 21, reference compound] | – | – | had protein expression in the liver | 19.14 | 18.01 | 14.07 | 7.81 | 17.08 | 0.89 | 70.21 | 610340 | 109840 | 30980 | 6445 | 1432170
CCCCCCC(CCCCCC)CCOC(=O)CCCCCCCN(CCO)CCCCCCCC(=O)OCCC(CCCCCC)CCCCCC [Compound 23, bis(3-hexylnonyl)-8,8′-((2-hydroxyethyl)azanediyl)dioctanoate, reference compound] | 15.2 | 147 | had protein expression in the liver | 20.21 | 19.02 | 14.86 | 8.25 | 18.04 | 0.85 | 71.50 | 589400 | 104530 | 33125 | 6240 | 1356022
CCCCCCCCCCCCC(O)CN(C)CCCCCC(=O)OCC(CCCCCC)CCCCCCCC (centres unmarked) [HHMA, reference compound] | 19.3 | 150 | had protein expression in the liver | 13.66 | 12.86 | 10.04 | 5.58 | 12.20 | 1.25 | 66.47 | 651020 | 119940 | 32557 | 5871 | 2006110

The next lines start with results.

PDI (%) [2] [%] | Particle size (nm) [2] [nm] | protein expression in the liver [4] | Structure (SMILES) | Multiples (YK-305) [1] | Multiples (YK-310) [1] | Multiples (YK-312) [1] | Multiples (YK-318) [1] | Multiples (YK-319) [1] | Ratio relative to SM-102 [1] | Cell survival rate (%) [3] [%] | average radiation intensity [5, 6] | average radiation intensity [5, 7] | average radiation intensity [5, 8] | average radiation intensity [5, 9] | Relative light unit (RLU) [1] [RLU]
28.2 | 177 | had protein expression in the liver | CCCCCCCCCCCOC(=O)CCCCCN(CCO)CCCCCCCC(=O)OC(CCCCCCCC)CCCCCCCC [SM-102, reference compound] | – | 16.08 | 12.56 | 6.98 | 15.25 | 1.00 | 69.45 | 701230 | – | – | – | –
17.7 | 241 | no protein expression in the liver | CCCCCCCCC(CCCCCCCC)OC(=O)CCCCCN(CCCCCC(=O)OC(CCCCCCCC)CCCCCCCC)C[C@H](O)CN(CC)CCO [YK-313] | 31.63 | 29.77 | 23.25 | – | – | 0.54 | 68.93 | 442180 | 104430 | 25560 | 3235 | 866536
